According to patent US11919901B2 (Syndax Pharmaceuticals, Inc., priority 2021, dated 2024):

molecular target: Menin-MLL (Homo sapiens (Human), UniProt O00255); assay: Determination of binding constants (Ki) to Menin-MLL (HTRF); conditions: HTRF; 0.25 nM H-FL-Menin, 3.2 nM FITC-MLL-4-43, 24 hr incubation
Sequence (O00255 whole entry): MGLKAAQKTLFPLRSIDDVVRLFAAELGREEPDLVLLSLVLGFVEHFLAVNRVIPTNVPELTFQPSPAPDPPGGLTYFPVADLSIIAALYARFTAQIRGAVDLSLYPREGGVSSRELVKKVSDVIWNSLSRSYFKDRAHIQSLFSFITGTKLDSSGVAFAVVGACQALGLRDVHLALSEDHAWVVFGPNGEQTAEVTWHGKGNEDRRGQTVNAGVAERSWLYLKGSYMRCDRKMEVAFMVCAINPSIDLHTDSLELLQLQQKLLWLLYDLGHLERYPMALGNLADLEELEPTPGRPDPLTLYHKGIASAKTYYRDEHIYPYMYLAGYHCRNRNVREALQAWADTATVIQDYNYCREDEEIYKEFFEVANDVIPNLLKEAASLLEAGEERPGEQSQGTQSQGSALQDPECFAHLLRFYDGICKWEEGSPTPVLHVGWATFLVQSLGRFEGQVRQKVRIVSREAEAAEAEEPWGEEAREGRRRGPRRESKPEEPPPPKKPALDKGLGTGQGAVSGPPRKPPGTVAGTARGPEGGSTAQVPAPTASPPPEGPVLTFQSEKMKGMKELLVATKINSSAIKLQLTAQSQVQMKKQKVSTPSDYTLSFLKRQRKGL

Compound `CCN(C(=O)c1cc(F)ccc1Oc1cncnc1N1CC2(CCN(C[C@@H]3CC[C@@H](NC(=O)Nc4ccccc4)CO3)CC2)C1)C(C)C` [Compound 215, N-Ethyl-5-fluoro-N-isopropyl-2-((4-(7-(((2S,5R)-5-(3-phenylureido)tetrahydro-2H-pyran-2-yl)methyl)-2,7-diazaspiro[3.5]nonan-2-yl)pyrimidin-5-yl)oxy)benzamide] has an EC50 of 50 to 100 nM.

same assay, conditions: HTRF; 0.25 nM H-FL-Menin, 3.2 nM FITC-MLL-4-43, 24 hr incubation; read-out: Menin-MLL Ki HTRF Assay: Ki

`CCNS(=O)(=O)N[C@@H]1CC[C@@H](CN2CCC3(CC2)CN(c2ncnnc2Oc2ccc(F)cc2C(=O)N(CC(F)F)C(C)C)C3)OC1` [Compound 188, N-(2,2-Difluoroethyl)-2-((5-(7-(((2S,5R)-5-((N-ethylsulfamoyl)amino)tetrahydro-2H-pyran-2-yl)methyl)-2,7-diazaspiro[3.5]nonan-2-yl)-1,2,4-triazin-6-yl)oxy)-5-fluoro-N-isopropylbenzamide] and `CCS(=O)(=O)N[C@@H]1CC[C@@H](CN2CCC3(CC2)CN(c2ncnnc2Oc2ccc(F)cc2C(=O)N(CC(F)(F)F)C(C)C)C3)OC1` [Compound 190, 2-((5-(7-(((2S,5R)-5-(Ethylsulfonamido)tetrahydro-2H-pyran-2-yl)methyl)-2,7-diazaspiro[3.5]nonan-2-yl)-1,2,4-triazin-6-yl)oxy)-5-fluoro-N-isopropyl-N-(2,2,2-trifluoroethyl)benzamide] cannot be ordered by Ki: under 1 nM for the first, under 1 nM for the second.

`CC(C)N(CC(F)(F)F)C(=O)c1cc(F)ccc1Oc1nncnc1N1CC2(CCN(C[C@@H]3CC[C@@H](NS(=O)(=O)C4CC4)CO3)CC2)C1` [Compound 191, 2-((5-(7-(((2S,5R)-5-(Cyclopropanesulfonamido)tetrahydro-2H-pyran-2-yl)methyl)-2,7-diazaspiro[3.5]nonan-2-yl)-1,2,4-triazin-6-yl)oxy)-5-fluoro-N-isopropyl-N-(2,2,2-trifluoroethyl)benzamide] and `CC(C)N(CC(F)(F)F)C(=O)c1cc(F)ccc1Oc1nncnc1N1CC2(CCN(C[C@@H]3CC[C@@H](NS(=O)(=O)c4cnn(C)c4)CO3)CC2)C1` [Compound 192, 5-Fluoro-N-isopropyl-2-((5-(7-(((2R,5S)-5-((1-methyl-1H-pyrazole)-4-sulfonamido)tetrahydro-2H-pyran-2-yl)methyl)-2,7-diazaspiro[3.5]nonan-2-yl)-1,2,4-triazin-6-yl)oxy)-N-(2,2,2-trifluoroethyl)benzamide] cannot be ordered by Ki: under 1 nM for the first, under 1 nM for the second.

`CCS(=O)(=O)N[C@@H]1CC[C@@H](CN2CCC3(CC2)CN(c2ncnnc2Oc2ccc(F)cc2C(=O)N(C(C)C)C(C)C)C3)OC1` [Compound 195, 2-((5-(7-(((2S,5R)-5-(Ethylsulfonamido)tetrahydro-2H-pyran-2-yl)methyl)-2,7-diazaspiro[3.5]nonan-2-yl)-1,2,4-triazin-6-yl)oxy)-5-fluoro-N,N-diisopropylbenzamide] and `CC(C)N(C(=O)c1cc(F)ccc1Oc1nncnc1N1CC2(CCN(C[C@@H]3CC[C@@H](NS(=O)(=O)c4cnn(C)c4)CO3)CC2)C1)C(C)C` [Compound 197, 5-Fluoro-N,N-diisopropyl-2-((5-(7-(((2S,5R)-5-((1-methyl-1H-pyrazole)-4-sulfonamido)tetrahydro-2H-pyran-2-yl)methyl)-2,7-diazaspiro[3.5]nonan-2-yl)-1,2,4-triazin-6-yl)oxy)benzamide] cannot be ordered by Ki: under 1 nM for the first, under 1 nM for the second.

`CC(C)N(C(=O)c1cc(F)ccc1Oc1cncnc1N1CC2(CCN(C[C@@H]3CC[C@@H](NS(=O)(=O)N4CCC[C@H]4C)CO3)CC2)C1)[C@@H]1CCOC1` [Compound 204, 5-Fluoro-N-isopropyl-2-((4-(7-(((2S,5R)-5-(((R)-2-methylpyrrolidine)-1-sulfonamido)tetrahydro-2H-pyran-2-yl)methyl)-2,7-diazaspiro[3.5]nonan-2-yl)pyrimidin-5-yl)oxy)-N-((R)-tetrahydrofuran-3-yl)benzamide] and `CC(C)N(C(=O)c1cc(F)ccc1Oc1cncnc1N1CC2(CCN(C[C@@H]3CC[C@@H](NS(=O)(=O)N4CCC[C@@H]4C)CO3)CC2)C1)[C@@H]1CCOC1` [Compound 205, 5-Fluoro-N-isopropyl-2-((4-(7-(((2S,5R)-5-(((S)-2-methylpyrrolidine)-1-sulfonamido)tetrahydro-2H-pyran-2-yl)methyl)-2,7-diazaspiro[3.5]nonan-2-yl)pyrimidin-5-yl)oxy)-N-((R)-tetrahydrofuran-3-yl)benzamide] cannot be ordered by Ki: under 1 nM for the first, under 1 nM for the second.

`CC(C)N(C(=O)c1cc(F)ccc1Oc1cncnc1N1CC2(CCN(C[C@@H]3CC[C@@H](NS(=O)(=O)N4CCC[C@@H]4C)CO3)CC2)C1)C1CCOC1` (stereo partly drawn) [Compound 206, 5-Fluoro-N-isopropyl-2-((4-(7-(((2S,5R)-5-(((S)-2-methylpyrrolidine)-1-sulfonamido)tetrahydro-2H-pyran-2-yl)methyl)-2,7-diazaspiro[3.5]nonan-2-yl)pyrimidin-5-yl)oxy)-N-((S)-tetrahydrofuran-3-yl)benzamide] and `CC(C)N(C(=O)c1cc(F)ccc1Oc1cncnc1N1CC2(CCN(C[C@@H]3CC[C@@H](NS(=O)(=O)N4CCC[C@H]4C)CO3)CC2)C1)C1CCOC1` (stereo partly drawn) [Compound 207, 5-Fluoro-N-isopropyl-2-((4-(7-(((2S,5R)-5-(((R)-2-methylpyrrolidine)-1-sulfonamido)tetrahydro-2H-pyran-2-yl)methyl)-2,7-diazaspiro[3.5]nonan-2-yl)pyrimidin-5-yl)oxy)-N-((S)-tetrahydrofuran-3-yl)benzamide] cannot be ordered by Ki: under 1 nM for the first, under 1 nM for the second.

`COC[C@H]1CCCN1S(=O)(=O)N[C@@H]1CC[C@@H](CN2CCC3(CC2)CN(c2ncncc2Oc2ccc(F)cc2C(=O)N(C(C)C)C(C)C)C3)OC1` [Compound 212, 5-Fluoro-N,N-diisopropyl-2-((4-(7-(((2S,5R)-5-(((R)-2-(methoxymethyl)pyrrolidine)-1-sulfonamido)tetrahydro-2H-pyran-2-yl)methyl)-2,7-diazaspiro[3.5]nonan-2-yl)pyrimidin-5-yl)oxy)benzamide] and `COC[C@@H]1CCCN1S(=O)(=O)N[C@@H]1CC[C@@H](CN2CCC3(CC2)CN(c2ncncc2Oc2ccc(F)cc2C(=O)N(C(C)C)C(C)C)C3)OC1` [Compound 213, 5-Fluoro-N,N-diisopropyl-2-((4-(7-(((2S,5R)-5-(((S)-2-(methoxymethyl)pyrrolidine)-1-sulfonamido)tetrahydro-2H-pyran-2-yl)methyl)-2,7-diazaspiro[3.5]nonan-2-yl)pyrimidin-5-yl)oxy)benzamide] cannot be ordered by Ki: under 1 nM for the first, under 1 nM for the second.

`CCN(C(=O)c1cc(F)ccc1Oc1cnc(C)nc1N1CC2(CCN(C[C@@H]3CC[C@@H](NS(=O)(=O)CC)CO3)CC2)C1)C(C)C` [Compound 216, N-Ethyl-2-((4-(7-(((2S,5R)-5-(ethylsulfonamido)tetrahydro-2H-pyran-2-yl)methyl)-2,7-diazaspiro[3.5]nonan-2-yl)-2-methylpyrimidin-5-yl)oxy)-5-fluoro-N-isopropylbenzamide] and `CCN(C(=O)c1cc(F)ccc1Oc1cncnc1N1CC2(CCN(C[C@@H]3CC[C@@H](NS(=O)(=O)CCN(C)C)CO3)CC2)C1)C(C)C` [Compound 220, 2-((4-(7-(((2S,5R)-5-((2-(Dimethylamino)ethyl)sulfonamido)tetrahydro-2H-pyran-2-yl)methyl)-2,7-diazaspiro[3.5]nonan-2-yl)pyrimidin-5-yl)oxy)-N-ethyl-5-fluoro-N-isopropylbenzamide] fall in the same range of Ki: 1 to 1.5 nM for the first, 1 to 1.5 nM for the second.

`C=CS(=O)(=O)N[C@@H]1CC[C@@H](CN2CCC3(CC2)CN(c2ncncc2Oc2ccc(F)cc2C(=O)N(CC)C(C)C)C3)OC1` [Compound 219, N-Ethyl-5-fluoro-N-isopropyl-2-((4-(7-(((2S,5R)-5-(vinylsulfonamido)tetrahydro-2H-pyran-2-yl)methyl)-2,7-diazaspiro[3.5]nonan-2-yl)pyrimidin-5-yl)oxy)benzamide] and `CC(C)N(C(=O)c1cc(F)ccc1Oc1cncnc1N1CC2(CCN(C[C@@H]3CC[C@@H](NS(=N)(=O)C4CC4)CO3)CC2)C1)C(C)C` (stereo partly drawn) [Compound 233, 2-((4-(7-(((2S,5R)-5-(Cyclopropanesulfonoamidimidamido)tetrahydro-2H-pyran-2-yl)methyl)-2,7-diazaspiro[3.5]nonan-2-yl)pyrimidin-5-yl)oxy)-5-fluoro-N,N-diisopropylbenzamide] cannot be ordered by Ki: under 1 nM for the first, under 1 nM for the second.

`CC(C)N(C(=O)c1cc(F)ccc1Oc1cncnc1N1CC2(CCN(C[C@@H]3CC[C@@H](NS(=O)(=O)N4CC5(CCO5)C4)CO3)CC2)C1)C(C)C` [Compound 221, 2-((4-(7-(((2S,5R)-5-(1-Oxa-6-azaspiro[3.3]heptane-6-sulfonamido)tetrahydro-2H-pyran-2-yl)methyl)-2,7-diazaspiro[3.5]nonan-2-yl)pyrimidin-5-yl)oxy)-5-fluoro-N,N-diisopropylbenzamide] and `CC(C)N(C(=O)c1cc(F)ccc1Oc1cncnc1N1CC2(CCN(C[C@@H]3CC[C@@H](NS(=O)(=O)N4CC5(COC5)C4)CO3)CC2)C1)C(C)C` [Compound 222, 2-((4-(7-(((2S,5R)-5-(2-Oxa-6-azaspiro[3.3]heptane-6-sulfonamido)tetrahydro-2H-pyran-2-yl)methyl)-2,7-diazaspiro[3.5]nonan-2-yl)pyrimidin-5-yl)oxy)-5-fluoro-N,N-diisopropylbenzamide] cannot be ordered by Ki: under 1 nM for the first, under 1 nM for the second.

`CN=S(=O)(N[C@@H]1CC[C@@H](CN2CCC3(CC2)CN(c2ncncc2Oc2ccc(F)cc2C(=O)N(C(C)C)C(C)C)C3)OC1)c1ccccc1` (stereo partly drawn) [Compound 232, 5-Fluoro-N,N-diisopropyl-2-((4-(7-(((2S,5R)-5-(N′-methylphenylsulfonoamidimidamido)tetrahydro-2H-pyran-2-yl)methyl)-2,7-diazaspiro[3.5]nonan-2-yl)pyrimidin-5-yl)oxy)benzamide] and `Cc1ncc(S(=O)(=O)N[C@@H]2CC[C@@H](CN3CCC4(CC3)CN(c3ncncc3Oc3ccc(F)cc3C(=O)N(C(C)C)C(C)C)C4)OC2)[nH]1` [Compound 234, 5-Fluoro-N,N-diisopropyl-2-((4-(7-(((2S,5R)-5-((2-methyl-1H-imidazole)-5-sulfonamido)tetrahydro-2H-pyran-2-yl)methyl)-2,7-diazaspiro[3.5]nonan-2-yl)pyrimidin-5-yl)oxy)benzamide] cannot be ordered by Ki: under 1 nM for the first, under 1 nM for the second.
